The test system of data set [1] is Venturia inaequalis. Description: Venturia Test (Apple)/protective. The data set is classed as in vivo. To be noted: apple young plants, protective spray, application rate 100 g/ha, evaluation 12 days after inoculation; 0% = as control, 100% = no infection. The method, then: Venturia Test (Apple)/protective
(§1) Solvent: 47 parts by weight of acetone
(§2) Emulsifier: 3 parts by weight of alkyl-aryl polyglycol ether
To produce a suitable preparation of active compound, 1 part by weight of active compound is mixed with the stated amounts of solvent and emulsifier, and the concentrate is diluted with water to the desired concentration.
To test for protective activity, young plants are sprayed with the preparation of active compound at the stated application rate. After the spray coating has dried on, the plants are inoculated with an aqueous conidia suspension of the causative organism of apple scab Venturia inaequalis and then remain in an incubation cabin at approximately 20° C. and 100% relative atmospheric humidity for 1 day.
The plants are then placed in a greenhouse at approximately 21° C. and a relative atmospheric humidity of approximately 90%.
Evaluation is carried out 12 days after the inoculation. 0% means an efficacy which corresponds to that of the control, whereas an efficacy of 100% means that no infection is observed.

The subject of data set [2] is Plasmopara viticola. Description: Plasmopara Test (grapevine)/protective. The settings on record: grapevine young plants, protective spray, application rate 100 g/ha, evaluation 6 days after inoculation; 0% = as control, 100% = no infection. In kind it is in vivo. Here is the method: Plasmopara Test (grapevine)/protective
as §1, §2
To produce a suitable preparation of the active compound, 1 part by weight of active compound is mixed with the stated amounts of solvent and emulsifier, and the concentrate is diluted with water to the desired concentration.
To test for protective activity, young plants are sprayed with a preparation of active compound at the stated application rate. After the spray coating has dried on, the plants are inoculated with an aqueous spore suspension of Plasmopara viticola and then remain in an incubation cabin at approximately 20° C. and 100% relative atmospheric humidity for 1 day. The plants are then placed in a greenhouse at approximately 21° C. and approximately 90% atmospheric humidity for 5 days. The plants are then moistened and placed in an incubation cabin for 1 day.
Evaluation is carried out 6 days after the inoculation. 0% means an efficacy which corresponds to that of the control, whereas an efficacy of 100% means that no infection is observed.

As usually defined, the melting point is the temperature, or range, at which the solid turns liquid.

In the case of `Cc1noc(C)c1S(=O)(=O)n1nnc2ccccc21` [1-(3,5-dimethyl-isoxazol-4-sulphonyl)-1H-benzotriazole, reference compound], the Efficacy in % stood at 0% in data set [1] and 49% in data set [2].
For `Cc1noc(C)c1S(=O)(=O)n1cnc2cnccc21` [Example 2, 1-(3,5-dimethyl-isoxazole-4-sulphonyl)-1H-imidazo[4,5-c]pyridine], the melting point lay within 130 to 135 °C. In data set [1], this compound displayed an Efficacy in % of 95%. The compound also registered an Efficacy in % in data set [2] of 90%.

These data come from patent US6387922B2, “Annulated azole derivatives useful as microbicidal agents” (Bayer Aktiengesellschaft, priority 1997, dated 2002).
